Experimental data reported in PubChem BioAssay (NCI).
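Five compound concentrations were applied to cells in 96-well plates for 48 hours; endpoints were derived by simple linear interpolation of the resulting dose-response curve. GI50: concentration for 50% inhibition of growth. The concentration for full growth arrest is given as TGI.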

Columns and labels:
Test in all cases: NCI tumour cell line growth inhibition, 48 h
M14 melanoma = system: M14 melanoma
K-562 leukemia = system: K-562 leukemia
MOLT-4 leukemia = system: MOLT-4 leukemia
RXF 393 renal = system: RXF 393 renal
NCI-H460 lung = system: NCI-H460 lung
SNB-19 CNS = system: SNB-19 CNS
SK-OV-3 ovarian = system: SK-OV-3 ovarian
DU-145 prostate = system: DU-145 prostate
NCI/ADR-RES ovarian = system: NCI/ADR-RES ovarian
CAKI-1 renal = system: CAKI-1 renal

SMILES	TGI (M14 melanoma)	TGI (K-562 leukemia)	TGI (MOLT-4 leukemia)	TGI (RXF 393 renal)	TGI (NCI-H460 lung)	TGI (SNB-19 CNS)	TGI (SK-OV-3 ovarian)	TGI (DU-145 prostate)	TGI (NCI/ADR-RES ovarian)	TGI (CAKI-1 renal)	GI50 (SK-OV-3 ovarian)	GI50 (M14 melanoma)	GI50 (K-562 leukemia)	GI50 (DU-145 prostate)	GI50 (NCI/ADR-RES ovarian)	GI50 (MOLT-4 leukemia)	GI50 (RXF 393 renal)	GI50 (NCI-H460 lung)	GI50 (SNB-19 CNS)
O=C1C(Cl)N(c2ccc(Cl)cc2)C1c1c[nH]c2ccccc12 (stereo unspecified)	42.3 µM	73.3 µM	70 µM	42.1 µM	30.1 µM	> 100 µM	–	–	–	–	–	–	–	–	–	–	–	–	–
Oc1cn(-c2ccc(Cl)cc2)nc1-c1nnc(-c2ccccc2)o1	11.7 µM	19.6 µM	19.9 µM	9.55 µM	13.8 µM	> 68.5 µM	> 74 µM	> 60.6 µM	7 µM	11.1 µM	–	–	–	–	–	–	–	–	–
Cc1cc(C)n(C(=C(C(Cl)=C(Cl)Cl)[N+](=O)[O-])n2nc(C)cc2C)n1	15.5 µM	5 µM	5 µM	16 µM	12.7 µM	16.2 µM	8.69 µM	14.9 µM	20.5 µM	8.38 µM	–	–	–	–	–	–	–	–	–
O=c1cnn(C/C=C/CBr)c(=O)[nH]1	35.9 µM	70.6 µM	50.1 µM	31.9 µM	36.5 µM	79.7 µM	–	43.8 µM	58.1 µM	25.6 µM	–	–	–	–	–	–	–	–	–
NS(=O)(=O)c1ccc(N=Nc2nc3[nH]c(=O)[nH]c(=O)c3[nH]2)cc1	> 100 µM	> 100 µM	–	> 100 µM	> 100 µM	> 100 µM	> 100 µM	> 100 µM	> 100 µM	> 100 µM	–	–	–	–	–	–	–	–	–
CC1=CC(C)C/C=C/C2C3OC3(C)C(C)C3C(Cc4c[nH]c5ccccc45)NC(=O)C23C(=O)C=CC(=O)C1O (stereo unspecified)	16.8 µM	> 100 µM	5.2 µM	2.94 µM	27.6 µM	> 46.6 µM	25.2 µM	27.6 µM	68.2 µM	2.94 µM	–	–	–	–	–	–	–	–	–
CCCCN(CCCC)CC(O)c1cc(-c2ccc(C(F)(F)F)cc2)nc(-c2ccc(C(F)(F)F)cc2)c1 (stereo unspecified)	> 100 µM	> 100 µM	> 100 µM	–	> 100 µM	> 100 µM	> 100 µM	> 100 µM	> 100 µM	> 100 µM	–	–	–	–	–	–	–	–	–
O=C(O)c1ccc(Nc2c3ccccc3nc3ccccc23)cc1	–	> 100 µM	> 83.9 µM	> 100 µM	> 100 µM	> 100 µM	> 100 µM	–	> 100 µM	> 100 µM	–	–	–	–	–	–	–	–	–
CC(C)(C)[Si](OC1CC(n2cnc3c(N)ncnc32)OC1CO)(c1ccccc1)c1ccccc1 (stereo unspecified)	> 100 µM	> 100 µM	> 100 µM	29.5 µM	30.7 µM	50 µM	32.7 µM	–	–	–	–	–	–	–	–	–	–	–	–
COc1ccc(C2COc3cc(OC(C)=O)c(OC(C)=O)cc3C2)cc1 (stereo unspecified)	–	80 µM	29.1 µM	34.1 µM	41.7 µM	33.4 µM	82.3 µM	–	101 µM	51.1 µM	–	–	–	–	–	–	–	–	–
c1nc(OCC2CCCCC2)c2[nH]cnc2n1	> 100 µM	> 100 µM	> 100 µM	> 100 µM	> 100 µM	> 100 µM	> 100 µM	> 100 µM	> 100 µM	> 100 µM	–	–	–	–	–	–	–	–	–
COc1ccc(N2C(=O)/C(=C(\C)c3cc4ccccc4oc3=O)N=C2c2cc([N+](=O)[O-])ccc2Cl)cc1	86.3 µM	> 100 µM	> 100 µM	–	> 100 µM	> 100 µM	> 100 µM	–	–	> 100 µM	–	–	–	–	–	–	–	–	–
O=C(O)CC(CC(=O)O)C(=O)O	> 100 µM	> 100 µM	> 100 µM	> 100 µM	> 100 µM	> 100 µM	> 100 µM	> 100 µM	> 100 µM	> 100 µM	–	–	–	–	–	–	–	–	–
FC(F)(F)c1ccc(N=C/C=C(/Nc2ccc(C(F)(F)F)cc2)c2ccc(Cl)cc2)cc1	30.5 µM	> 100 µM	> 100 µM	26.4 µM	> 100 µM	25 µM	39.1 µM	31.8 µM	32.3 µM	19.6 µM	–	–	–	–	–	–	–	–	–
CC(=O)N(C)c1ccc(Nc2cc(C)[nH]c3ccc4ncnc4c23)cc1	21.5 µM	74 µM	13.7 µM	22.9 µM	12.3 µM	42.4 µM	35.8 µM	22.4 µM	453 µM	23.8 µM	–	–	–	–	–	–	–	–	–
CCOc1cc2c(OCc3ccccc3)cc3c4cc(OC)c(OC)cc4c[n+](C)c3c2cc1OC	9.73 µM	> 42.6 µM	> 20.3 µM	9.18 µM	> 58.9 µM	2.44 µM	19.4 µM	23.2 µM	> 100 µM	> 69.4 µM	–	–	–	–	–	–	–	–	–
CN(C)CCCNC(=O)c1cc2[nH]c3c(cnc4ccc([N+](=O)[O-])cc43)c(=O)c2n1C	31.1 µM	33.1 µM	33.9 µM	18.7 µM	26 µM	33.6 µM	37.9 µM	25.1 µM	49.6 µM	–	17.3 µM	17.3 µM	15.8 µM	12.6 µM	22 µM	13.5 µM	4.88 µM	13.3 µM	17.7 µM
